Data reported in ChEMBL document CHEMBL6103628, “Structural Optimization of Covalent Inhibitors for Deubiquitinase ChlaDUB1 of Chlamydia trachomatis as Antibiotic Agents” (J Med Chem, 2025).
Values after ≈ are worked out from the molar mass of the structure shown. Active and inactive are the calls of the source. The calls are words filed in the database; no cut-off is given here.

Columns and labels:
[1] = molecular target: T1, Deubiquitinase and deneddylase Dub1 (Chlamydia trachomatis serovar L2 (strain ATCC VR-902B / DSM 19102 /434/Bu), UniProt B0B9A0); assay: Inhibition of recombinant Chlamydia trachomatis DUB1 (130 to 401 residues) using Ub-Rh110Gly as fluorogenic substrate incubated for 60 mins by enzymatic analysis
T1 sequence (B0B9A0 whole entry): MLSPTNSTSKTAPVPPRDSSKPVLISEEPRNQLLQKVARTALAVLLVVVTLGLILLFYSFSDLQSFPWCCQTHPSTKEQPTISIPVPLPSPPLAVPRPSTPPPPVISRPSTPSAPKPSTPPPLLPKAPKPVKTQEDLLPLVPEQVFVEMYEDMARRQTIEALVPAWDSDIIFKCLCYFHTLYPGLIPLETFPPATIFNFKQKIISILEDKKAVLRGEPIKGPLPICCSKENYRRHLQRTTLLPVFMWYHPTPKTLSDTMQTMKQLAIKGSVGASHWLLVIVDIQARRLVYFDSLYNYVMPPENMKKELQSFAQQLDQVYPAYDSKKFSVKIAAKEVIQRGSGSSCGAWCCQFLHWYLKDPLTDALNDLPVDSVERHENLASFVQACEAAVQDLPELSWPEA

[2] = molecular target: T2, Deubiquitinase and deneddylase Dub1 (Chlamydia trachomatis serovar L2 (strain ATCC VR-902B / DSM 19102 /434/Bu)) (UniProt B0B9A0); assay: Covalent inhibition of recombinant Chlamydia trachomatis DUB1 (130 to 401 residues) using Ub-Rh110Gly as fluorogenic substrate incubated for 10 to 360 mins by enzymatic analysis; conditions: time 10-360 min
T2 sequence (whole entry): T1 sequence (B0B9A0 whole entry)

[3] = molecular target: T2, Deubiquitinase and deneddylase Dub1 (Chlamydia trachomatis serovar L2 (strain ATCC VR-902B / DSM 19102 /434/Bu)); assay: Inhibition of recombinant Chlamydia trachomatis DUB1 (130 to 401 residues) using Ub-Rh110Gly as fluorogenic substrate at 100 to 500 uM incubated for 20 to 240 mins by enzymatic analysis relative to control; conditions: dose 100-500 µM, time 20-240 min
[4] = molecular target: T2, Deubiquitinase and deneddylase Dub1 (Chlamydia trachomatis serovar L2 (strain ATCC VR-902B / DSM 19102 /434/Bu)); assay: Inhibition of recombinant Chlamydia trachomatis DUB1 (130 to 401 residues) using Ub-Rh110Gly as fluorogenic substrate incubated for 60 mins by enzymatic analysis relative to control
[5] = molecular target: T1, Deubiquitinase and deneddylase Dub1; assay: Binding affinity to recombinant Chlamydia trachomatis DUB1 (130 to 401 residues) assessed as inhibition constant using Ub-Rh110Gly as fluorogenic substrate incubated for 360 mins by Michaelis-Menten analysis
HeLa = assay: Cytotoxicity against human HeLa cells assessed as cell viability at 4 to 256 ug/mL measured after 20 hrs by XTT assay; assay type: toxicity, cell-based; conditions: dose 4-256 µg/ml
[6] = molecular target: T1, Deubiquitinase and deneddylase Dub1; assay: Inhibition of recombinant Chlamydia trachomatis DUB1 (130 to 401 residues) using Ub-Rh110Gly as fluorogenic substrate incubated for 20 mins by enzymatic analysis
Chlamydia trachomatis = assay: Anti-chlamydial activity against Chlamydia trachomatis serovar L2 infected in human HEp-2 cells assessed as inhibition of chlamydial inclusion incubated for 16 hrs by Alexa488/DAPI staining based immunofluorescence assay; assay type: functional, organism-based; conditions: serovar L2, HEp-2, 16 h
[7] = molecular target: T1, Deubiquitinase and deneddylase Dub1; assay: Inhibition of recombinant Chlamydia trachomatis DUB1 (130 to 401 residues) using Ub-Rh110Gly as fluorogenic substrate incubated for 2 mins by enzymatic analysis
HEp-2 = assay: Cytotoxicity against human HEp-2 cells assessed as reduction in cell viability at 4 to 256 ug/mL measured after 20 hrs by XTT assay; assay type: toxicity, cell-based; conditions: hep-2, 20 h, dose 4-256 µg/ml
[8] = molecular target: T2, Deubiquitinase and deneddylase Dub1 (Chlamydia trachomatis serovar L2 (strain ATCC VR-902B / DSM 19102 /434/Bu)); assay: Non-covalent inhibition of recombinant Chlamydia trachomatis DUB1 (130 to 401 residues) using Ub-Rh110Gly as fluorogenic substrate incubated for 10 to 360 mins by enzymatic analysis; conditions: time 10-360 min
[9] = molecular target: T2, Deubiquitinase and deneddylase Dub1 (Chlamydia trachomatis serovar L2 (strain ATCC VR-902B / DSM 19102 /434/Bu)); assay: Inhibition of recombinant Chlamydia trachomatis DUB1 (130 to 401 residues) using Ub-Rh110Gly as fluorogenic substrate at highest concentration incubated for 60 to 360 mins by enzymatic analysis; conditions: time 60-360 min
[10] = molecular target: T2, Deubiquitinase and deneddylase Dub1 (Chlamydia trachomatis serovar L2 (strain ATCC VR-902B / DSM 19102 /434/Bu)); assay: Binding affinity to recombinant Chlamydia trachomatis DUB1 (130 to 401 residues) assessed as inactivation rate constant (Kinact) using Ub-Rh110Gly as fluorogenic substrate incubated for 360 mins by Michaelis-Menten analysis
[11] = molecular target: T2, Deubiquitinase and deneddylase Dub1 (Chlamydia trachomatis serovar L2 (strain ATCC VR-902B / DSM 19102 /434/Bu)); assay: Binding affinity to recombinant Chlamydia trachomatis DUB1 (130 to 401 residues) assessed as Kinact/Ki ratio using Ub-Rh110Gly as fluorogenic substrate incubated for 360 mins by Michaelis-Menten analysis
[12] = molecular target: T1, Deubiquitinase and deneddylase Dub1; assay: Inhibition of recombinant Chlamydia trachomatis DUB1 (130 to 401 residues) using Ub-Rh110Gly as fluorogenic substrate incubated for 360 mins by enzymatic analysis

IC50 ([1]; read-out: IC50) [µM]	SMILES	also measured
23	N#Cc1nccc(C(=O)Nc2n[nH]c3ccccc23)n1	inhibition [4]: 100%
175	N#Cc1nccc(NC(=O)Cc2c[nH]c3ccccc23)n1	
19	N#Cc1nccc(C(=O)NCc2n[nH]c3ccccc23)n1	inhibition [4]: 100%
6.1	N#Cc1nccc(C(=O)NCc2c[nH]c3ccccc23)n1	Ki [5]: 314 µM; Kinact [10]: 0.422 min⁻¹; Ratio [11]: 22.4 M⁻¹ s⁻¹; IC50 [12]: 1.7 µM
93	N#Cc1ncc(NC(=O)Cc2c[nH]c3ccccc23)cn1	
2.9	N#Cc1nccc(C(=O)NCc2c[nH]c3ccc(OCc4ccccc4)cc23)n1	Activity (HeLa): Non-toxic; Activity (HEp-2): Toxic; inhibition [4]: 100%
23	N#Cc1nccc(C(=O)NCCc2c[nH]c3ccccc23)n1	
15	Cn1cc(CNC(=O)c2ccnc(C#N)n2)c2ccccc21	
5.7	COc1ccc2[nH]cc(CNC(=O)c3ccnc(C#N)n3)c2c1	
7.5	COc1ccc2c(CNC(=O)c3ccnc(C#N)n3)c[nH]c2c1	

The remaining lines, values behind:

SMILES	IC50 ([1]; read-out: IC50) [µM]	also measured
N#Cc1nccc(C(=O)NCc2ccn(C(=O)Cc3ccccc3)n2)n1	23	inhibition [2]: Active; inhibition [3]: 100%
N#Cc1ncc(C(=O)NCc2ccc(C(=O)NCc3ccccc3)cc2)cn1	27	inhibition [2]: Active
Cn1ccc(NC(=O)c2ccnc(C#N)n2)n1	47	IC50 ([1]; read-out: pIC50 (converted)): 45.7 µM
N#Cc1nc(C(=O)NCc2c[nH]c3ccccc23)co1		Ki [5]: 117 µM; Activity (HeLa): Toxic; IC50 [6]: 3.1 µM; IC50 (Chlamydia trachomatis): 32.2 µg/mL (≈ 121 µM); IC50 [7]: 16 µM; Activity (HEp-2): Toxic
N#Cc1ncc(C(=O)NCc2ccc(C(=O)NCc3ccccc3)c3ccccc23)cn1	10	inhibition [8]: Active; inhibition [9]: Active; Complete Inhibition Was Not Achieved
COc1ccccc1CNC(=O)[C@H]1CC[C@H](CNC(=O)c2cnc(C#N)nc2)CC1	122	
N#Cc1nccc(C(=O)NCc2c[nH]c3cc(OCc4ccccc4)ccc23)n1	15	
N#Cc1ncc(C(=O)N2CCc3cc(C(=O)NCc4ccccc4)ccc3C2)cn1	77	
N#Cc1nccc(C(=O)Nc2cc[nH]n2)n1	23	
N#Cc1nccc(C(=O)NCc2c[nH]c3cccc(OCc4ccccc4)c23)n1	184	
N#Cc1ncc(C(=O)NCc2cccc(C(=O)NCc3ccccc3)c2)cn1	22	
N#Cc1nccc(C(=O)NCc2c[nH]c3c(OCc4ccccc4)cccc23)n1	182	
